Earlier results in patent US9498464B2, “Treatment of arterial wall by combination of RAAS inhibitor and HMG-CoA reductase inhibitor” (ARTSKIN d.o.o., priority 2011, dated 2016).

Tested on: arterial stiffness
Details: 12 weeks, 80 mg then 160 mg/day, patients with type 2 diabetes and hypertension

In the case of `CCCCC(=O)N(Cc1ccc(-c2ccccc2-c2nnn[nH]2)cc1)[C@H](C(=O)O)C(C)C` [valsartan], the “arterial stiffness (pulse wave analysis)” value is given as “improves arterial stiffness”.
